From patent publication US10646575B2, “Heterocyclic degronimers for target protein degradation” (C4 Therapeutics, Inc., priority 2016, dated 2020) come the findings set out here.

One may read the Kd as the constant that tells how readily two partners part at equilibrium. A lower Kd goes with a tighter complex.

The target of the assay is CRBN-DDB1 (Homo sapiens (Human), UniProt Q96SW2). The assay is described as follows: CRBN-DDB1 fluorescence polarization (FP) binding assay. To be noted: displacement of (−)-Thalidomide-Alexa Fluor or Pomalidomide-fluorescein probe; 400 nM CRBN-DDB1, 5 nM probe, 60 min, room temperature. The procedure: Measuring compound ligand binding to CRBN-DDB1 was carried out using an established sensitive and quantitative in vitro fluorescence polarization (FP) based binding assay. […] Compounds were dispensed from serially diluted DMSO stock into black 384-well compatible fluorescence polarization plates using an Echo acoustic dispenser. Compound binding to CRBN-DDB1 was measured by displacement of either a (−)-Thalidomide-Alexa Fluor® or Pomalidomide-fluorescein conjugated probe dye. […] Matching control wells excluding CRBN-DDB1 were used to correct for background fluorescence. Plates were read on an Envision plate reader with appropriate FP filter sets. The corrected S (perpendicular) and P (parallel) values were used to calculate fluorescence polarization (FP) with the following equation: FP=1000*(S−G*P)/(S+G*P).
Chain of CRBN-DDB1 (Q96SW2 whole entry): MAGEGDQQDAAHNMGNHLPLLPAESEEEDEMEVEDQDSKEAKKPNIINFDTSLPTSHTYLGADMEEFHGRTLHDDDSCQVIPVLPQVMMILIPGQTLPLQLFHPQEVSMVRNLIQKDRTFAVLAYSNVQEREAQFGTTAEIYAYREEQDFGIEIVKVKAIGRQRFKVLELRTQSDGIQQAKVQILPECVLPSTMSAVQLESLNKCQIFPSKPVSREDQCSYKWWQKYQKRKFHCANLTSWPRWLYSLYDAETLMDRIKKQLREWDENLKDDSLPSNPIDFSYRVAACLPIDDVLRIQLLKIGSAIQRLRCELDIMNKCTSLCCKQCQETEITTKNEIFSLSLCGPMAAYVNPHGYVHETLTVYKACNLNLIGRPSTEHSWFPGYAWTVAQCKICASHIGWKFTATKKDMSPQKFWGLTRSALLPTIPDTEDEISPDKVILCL
Chain of CRBN-DDB1 (Q16531 whole entry partner): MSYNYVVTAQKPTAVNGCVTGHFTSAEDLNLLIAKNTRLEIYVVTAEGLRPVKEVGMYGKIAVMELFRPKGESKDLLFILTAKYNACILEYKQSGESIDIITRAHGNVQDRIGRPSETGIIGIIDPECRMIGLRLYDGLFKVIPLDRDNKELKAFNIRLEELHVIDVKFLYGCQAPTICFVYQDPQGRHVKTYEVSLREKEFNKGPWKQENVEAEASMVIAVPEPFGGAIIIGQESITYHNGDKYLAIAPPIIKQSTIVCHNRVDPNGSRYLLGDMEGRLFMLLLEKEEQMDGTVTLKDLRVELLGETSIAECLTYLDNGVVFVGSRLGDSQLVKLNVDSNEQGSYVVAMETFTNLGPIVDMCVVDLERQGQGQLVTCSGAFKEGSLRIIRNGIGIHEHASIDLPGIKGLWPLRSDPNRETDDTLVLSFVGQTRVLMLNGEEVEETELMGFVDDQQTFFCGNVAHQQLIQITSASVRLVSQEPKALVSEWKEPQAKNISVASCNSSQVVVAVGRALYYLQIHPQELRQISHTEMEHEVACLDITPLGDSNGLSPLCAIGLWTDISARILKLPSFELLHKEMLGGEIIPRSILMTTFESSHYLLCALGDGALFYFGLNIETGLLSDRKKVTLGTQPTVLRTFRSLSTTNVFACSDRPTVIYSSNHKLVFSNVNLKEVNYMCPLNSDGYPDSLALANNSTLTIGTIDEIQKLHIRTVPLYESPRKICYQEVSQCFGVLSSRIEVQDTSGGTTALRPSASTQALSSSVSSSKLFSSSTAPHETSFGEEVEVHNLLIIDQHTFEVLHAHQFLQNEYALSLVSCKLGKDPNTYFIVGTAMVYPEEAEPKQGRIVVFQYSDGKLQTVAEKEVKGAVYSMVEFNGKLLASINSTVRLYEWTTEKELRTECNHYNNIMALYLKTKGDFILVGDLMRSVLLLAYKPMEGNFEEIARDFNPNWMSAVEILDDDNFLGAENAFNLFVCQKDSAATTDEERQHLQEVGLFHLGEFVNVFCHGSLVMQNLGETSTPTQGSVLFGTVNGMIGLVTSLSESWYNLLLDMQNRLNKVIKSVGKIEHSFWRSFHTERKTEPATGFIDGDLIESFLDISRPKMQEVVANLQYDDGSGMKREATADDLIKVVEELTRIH

With `O=C1NC(=O)C2(CC2)CC1N1C(=O)c2ccccc2C1=O` (stereo not shown) [Compound 3, 2-(4,6-dioxo-5-azaspiro[2.5]octan-7-yl)isoindoline-1,3-dione], the Kd is 1 to 1000 µM.
